{"source": "patent US20210213090A1", "about": "“COMPOSITIONS, USES AND METHODS FOR TREATMENT AND/OR PREVENTION OF ELEVATED CHOLESTEROL, HYPERCHOLESTEROLEMIA, AND CARDIOVASCULAR DISEASE” (Nutraceutical Holdings Inc., priority 2018, published 2021)", "origin": "cited, not measured here", "test_system": "LDL-C / cholesterol", "settings": "human, in vivo"}
{"smiles": "COC1=C(OC)C(=O)C(C/C=C(\\C)CC/C=C(\\C)CC/C=C(\\C)CC/C=C(\\C)CC/C=C(\\C)CC/C=C(\\C)CC/C=C(\\C)CC/C=C(\\C)CC/C=C(\\C)CCC=C(C)C)=C(C)C1=O", "note": "[coenzyme Q10, ubiquinone]", "values": [{"measurement": "effect of supplementation on statin-related muscle symptoms, in words", "value": "decreases statin-related mild-to-moderate muscle symptoms"}]}
